# Target: T1, murine IP10-AP (IP-10 alkaline phosphatase fusion protein) (UniProt P05187+P17515)
# T1 construct: made in house; host or cells: NIH-3T3 clone 18.G5 (conditioned medium)
# Assay: glycosaminoglycan inhibition of IP10-AP binding to A20 B cells
# Settings: 15 nM mIP10-AP, 2 hours on ice; for inhibition of IP10-AP binding: at a concentration 100× below 1 mg/ml
# Protocol: 107 A20 cells were incubated with 15 nM mIP10-AP in the presence of the indicated concentrations of heparin (H), heparan sulfate (HS), chondroitin sulfate B (CSB) and chondroitin sulfate A (CSA) for 2 hours on ice. Cells were then washed and bound IP10-AP assayed.
# Binding Assays. For non-adherent cells, […] were washed 1× with ice-cold binding buffer (HBSS/10 mM Hepes/0.1% ETSA) and resuspended in the indicated concentration of IP10-AP and competitors in a total of […] ice-cold binding buffer. Binding was carried out for 2 hrs on ice with occasional mixing. Cells were washed 5× with ice cold binding buffer by repeated centrifugation at 4° C. Cell bound AP activity was determined by lysing cells in […] 10 mM Tris (pH 8.0)/1% Triton X-100, heating at 65° C. for 10 min to inactivate cellular alkaline phosphatase, and then centrifuging at 14,000×g for 10 min. 50 ml of the soluble lysate was then mixed with 50 ml 2× SEAP buffer in a 96 well plate at room temperature and the colormetric product was assayed in a kinetic plate reader at A405. For adherent cells with higher numbers of binding sites, binding was determined in 6 well cluster plates. Cells were washed 2× with ice-cold binding buffer and incubated with the indicated concentration of IP10-AP and competitor in a total of 500 ml of ice-cold binding buffer for 2 hrs in the cold room on a rocker platform. […] Non-specific binding was determined in one of two ways. For the calculation of the equilibrium constant, non-specific binding was determined by adding […] at each concentration of IP10-AP and performing the binding experiments in parallel exactly as described above. Specific binding was determined by subtracting background from total binding. Specific binding data was analyzed with the binding equation B=(Bmax×F)/(Kd+F) (where B is bound ligand and F is free ligand) (28) using the program KaleidaGraph on a Macintosh computer. […] 125I-IP10 binding to cells was performed essentially as described above for IP10-AP binding except the cell pellet with bound IP-10 was counted in a gamma-counter. […]
# T1 sequence (P17515+P05187 fused): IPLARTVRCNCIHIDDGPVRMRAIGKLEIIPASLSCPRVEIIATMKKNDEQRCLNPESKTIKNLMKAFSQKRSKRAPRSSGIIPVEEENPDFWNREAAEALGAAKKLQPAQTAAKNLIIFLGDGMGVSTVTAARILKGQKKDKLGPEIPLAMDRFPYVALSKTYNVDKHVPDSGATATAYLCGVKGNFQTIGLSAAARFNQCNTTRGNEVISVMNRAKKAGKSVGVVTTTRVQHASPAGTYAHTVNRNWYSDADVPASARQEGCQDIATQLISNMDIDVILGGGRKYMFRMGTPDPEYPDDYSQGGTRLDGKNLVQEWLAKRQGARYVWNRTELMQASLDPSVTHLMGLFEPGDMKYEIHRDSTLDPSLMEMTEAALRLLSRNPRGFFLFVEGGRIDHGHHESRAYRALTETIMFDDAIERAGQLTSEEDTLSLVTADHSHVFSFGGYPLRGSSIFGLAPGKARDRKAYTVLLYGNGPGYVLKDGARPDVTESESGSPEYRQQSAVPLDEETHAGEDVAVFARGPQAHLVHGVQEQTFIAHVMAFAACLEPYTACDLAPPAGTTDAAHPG
inhibition of IP10-AP binding,effect on IP10-AP binding (1 mg/ml),Substance
complete inhibition,,heparan sulfate
complete inhibition,,heparin
,no effect,chondroitin sulfate A

# Reference: patent US5824299A, “Modulation of endothelial cell proliferation with IP-10” (President & Fellows of Harvard College, priority 1995, dated 1998)
